# Reference: ChEMBL document CHEMBL1201862, “PubChem BioAssay data set” (2004)
#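 In this assay, cells in 96-well plates receive the compound at five concentrations for 48 hours. Endpoints are linearly interpolated between the surrounding concentrations. The concentration for 50% growth inhibition is given as GI50.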 Active and inactive are the calls of the source. No stated cut-off is given here; in the data, active = GI50 up to about 1.1 µM and inactive = higher.
# Assays:
# Experiment in all cases: inhibition of tumour cell growth, NCI panel, 48 h
# T47D = tested on: T47D
# DLD-1 = tested on: DLD-1
# DMS-114 = tested on: DMS-114
# DMS-273 = tested on: DMS-273
# HOP-18 = tested on: HOP-18
# KM-20L2 = tested on: KM-20L2
# LXFL 529 = tested on: LXFL 529
# SNB-78 = tested on: SNB-78
# RXF 631 = tested on: RXF 631
smiles,measurement,setting,value
O=C1/C(=C/c2cccnc2)C(n2cccc2)c2c(Br)sc(Br)c21 (centres undefined),GI50,T47D,2.82 µM (inactive)
CCOc1cc(-c2nc3ccccn3c2/N=C/c2cc([N+](=O)[O-])cc([N+](=O)[O-])c2O)ccc1O,GI50,T47D,> 100 µM (inactive)
O=C(Nc1ccccc1F)c1cc2ccc(O)cc2o/c1=N\c1ccccc1F,GI50,T47D,1.96 µM (inactive)
O=C1CC2C=CC1C2CO (centres undefined),GI50,DLD-1,> 100 µM (inactive)
same,GI50,DMS-114,> 100 µM (inactive)
same,GI50,DMS-273,> 100 µM (inactive)
same,GI50,HOP-18,> 100 µM (inactive)
same,GI50,KM-20L2,> 100 µM (inactive)
same,GI50,LXFL 529,> 100 µM (inactive)
same,GI50,SNB-78,> 100 µM (inactive)
C#CCN(Cc1ccc2nc(OC)c(OC)nc2c1)c1cc(OC)c(OC)c(OC)c1,GI50,T47D,18.4 µM (inactive)
N=c1oc2ccc(Cl)cc2cc1C(=O)NCc1ccccc1,GI50,T47D,39 µM (inactive)
O=C1CC2(CCCc3sccc32)C(=O)N1 (centres undefined),GI50,T47D,> 100 µM (inactive)
O=C(CNC(=O)OCc1ccccc1)Oc1ccccc1,GI50,DLD-1,> 100 µM (inactive)
same,GI50,DMS-114,> 100 µM (inactive)
same,GI50,DMS-273,> 100 µM (inactive)
same,GI50,HOP-18,> 100 µM (inactive)
same,GI50,KM-20L2,> 100 µM (inactive)
same,GI50,LXFL 529,> 100 µM (inactive)
same,GI50,SNB-78,> 100 µM (inactive)
COc1ccc(-c2cc(O)c3cc4c(cc3n2)OCO4)cc1OC,GI50,DLD-1,> 100 µM (inactive)
same,GI50,DMS-114,> 100 µM (inactive)
same,GI50,DMS-273,> 100 µM (inactive)
same,GI50,HOP-18,> 100 µM (inactive)
same,GI50,KM-20L2,> 100 µM (inactive)
same,GI50,LXFL 529,> 100 µM (inactive)
same,GI50,SNB-78,> 100 µM (inactive)
CC(CC(=O)O)(CC(=O)O)c1ccccc1,GI50,T47D,> 100 µM (inactive)
CC1=NN(C(=O)Cc2ccccc2)C(=O)/C1=C\c1cccc(O)c1,GI50,DLD-1,> 100 µM (inactive)
same,GI50,DMS-114,> 100 µM (inactive)
same,GI50,DMS-273,> 100 µM (inactive)
same,GI50,HOP-18,> 100 µM (inactive)
same,GI50,SNB-78,> 100 µM (inactive)
CCSc1[nH]c(NC(=S)NC(=O)c2ccccc2Cl)c(C(N)=O)c1C(N)=O,GI50,T47D,> 10 µM (inactive)
CCOC(=O)c1cn(-c2ccccc2)c(=S)n2c1nc1ccccc12,GI50,T47D,80 µM (inactive)
CN(C)CCOc1ccc2c(c1)C/C(=C/c1ncc([N+](=O)[O-])n1C)C2=O,GI50,T47D,6.03 µM (inactive)
COc1c2c(c3c(c1OC)c(=O)c1ccccc1n3C)OCO2,GI50,T47D,> 100 µM (inactive)
Cc1ccc(C(=O)NN=C(/N=N/c2cccc(C)c2)c2ccc(N(C)C)cc2)cc1,GI50,T47D,2.82 µM (inactive)
Oc1c(Cl)c(Cl)c(Cl)c(Cl)c1Cl [PENTACHLOROPHENOL],GI50,T47D,20 µM (inactive)
C=C1C(=O)O[C@H]2[C@H]1CC(=O)/C(C)=C/CC[C@@]1(C)O[C@@H]21,GI50,T47D,1.12 µM (active)
CC(=O)OC1C(COC(=O)c2ccccc2)OC(Nc2ncc(-c3ccc(Br)cc3)s2)C(OC(=O)c2ccccc2)C1OC(=O)c1ccccc1 (centres undefined),GI50,T47D,> 100 µM (inactive)
CC1C[C@]2(C)C(=O)N(c3ccccc3)C(=N)[C@@H]2N(C)c2ccccc21 (some centres undefined),GI50,T47D,> 100 µM (inactive)
CCOC(=O)C1(C/C=C/CBr)CCc2ccccc2C1=O (centres undefined),GI50,T47D,14.3 µM (inactive)
CCOC(=O)/C(C(C)=O)=C(\OC(C)=O)c1ccncc1C(=O)O,GI50,T47D,> 100 µM (inactive)
Cc1cccc2nc3cc(O)cc(O)c3c(O)c12,GI50,T47D,> 10 µM (inactive)
COc1ccc(N2C(=O)/C(=C\c3cccc(Oc4ccccc4)c3)SC2c2ccccc2)cc1 (centres undefined),GI50,T47D,37.5 µM (inactive)
COc1ccccc1-c1cc(O)c2cc3c(cc2n1)OCO3,GI50,DLD-1,40.2 µM (inactive)
same,GI50,DMS-273,19.6 µM (inactive)
same,GI50,LXFL 529,48.9 µM (inactive)
O=C(O)C1C2C=CC(O2)C1C(=O)NCc1ccccn1 (centres undefined),GI50,T47D,> 100 µM (inactive)
CCNc1nc(N)c(C(=O)c2ccc(Cl)cc2)s1,GI50,T47D,33 µM (inactive)
N#Cc1ccc(C2SCc3nc4ccccc4n32)cc1 (centres undefined),GI50,DLD-1,> 100 µM (inactive)
same,GI50,DMS-273,> 100 µM (inactive)
same,GI50,HOP-18,48.5 µM (inactive)
same,GI50,KM-20L2,52.7 µM (inactive)
same,GI50,LXFL 529,45.4 µM (inactive)
same,GI50,SNB-78,> 100 µM (inactive)
COC1CC(Br)(C#N)C1 (centres undefined),GI50,DLD-1,> 100 µM (inactive)
same,GI50,DMS-114,> 100 µM (inactive)
same,GI50,HOP-18,> 100 µM (inactive)
same,GI50,KM-20L2,> 100 µM (inactive)
same,GI50,SNB-78,> 100 µM (inactive)
Clc1ccc(SC(/C=C/NNC2=NN=C(c3ccccc3)C(c3ccccc3)N2)c2ccccc2)cc1 (centres undefined),GI50,DLD-1,23.4 µM (inactive)
same,GI50,DMS-114,18.5 µM (inactive)
same,GI50,DMS-273,26.2 µM (inactive)
same,GI50,KM-20L2,19.9 µM (inactive)
same,GI50,RXF 631,25 µM (inactive)
same,GI50,SNB-78,32.7 µM (inactive)
CC(=O)c1c(C(F)(F)F)[n+]([O-])c2cc(Cl)c(Cl)cc2[n+]1[O-],GI50,T47D,0.338 µM (active)
COC(=O)c1c(OC(C)=O)ccc2c1c1c(OC(C)=O)c3ccccc3c(OC(C)=O)c1n2C,GI50,T47D,12.3 µM (inactive)
CC1(C)Oc2ccc3c(=O)c4ccccc4oc3c2C1C(=O)O (centres undefined),GI50,T47D,> 100 µM (inactive)
OC1CCCCCCCCCCC1SCCCCl (centres undefined),GI50,T47D,> 100 µM (inactive)
CC(=O)OC/C=C/[C@H](O[Si](C)(C)C(C)(C)C)[C@@H](O)/C=C/COC(C)=O,GI50,T47D,> 100 µM (inactive)
Cc1c(C(=O)O)n(C)c(=O)n(C)c1=O,GI50,DLD-1,> 100 µM (inactive)
same,GI50,DMS-273,> 100 µM (inactive)
same,GI50,HOP-18,> 100 µM (inactive)
same,GI50,KM-20L2,> 100 µM (inactive)
same,GI50,LXFL 529,> 100 µM (inactive)
CN(C)CCOc1ccc(-c2c(Oc3ccc(Cl)cc3)c(=O)oc3ccccc23)cc1,GI50,T47D,8.87 µM (inactive)
O=C(Nc1ccccc1)OC1OC(COC(=O)c2ccccc2)C(OC(=O)c2ccccc2)C1OS(=O)(=O)c1ccc([N+](=O)[O-])cc1 (centres undefined),GI50,T47D,> 100 µM (inactive)
Cn1c(COC(=O)NC2CCCCC2)c(COC(=O)NC2CCCCC2)c2ccc3ccccc3c21,GI50,T47D,50.4 µM (inactive)
O=C(NO)c1ccc([N+](=O)[O-])cc1,GI50,DLD-1,51.3 µM (inactive)
same,GI50,DMS-114,30.7 µM (inactive)
same,GI50,DMS-273,43.8 µM (inactive)
same,GI50,KM-20L2,62.2 µM (inactive)
same,GI50,LXFL 529,25.1 µM (inactive)
CN1C(=O)C23CCCCC2CC1(c1ccccc1)S3 (centres undefined),GI50,T47D,42.6 µM (inactive)
N#CCCCCC12C3C(=O)N(c4ccccc4)C(=O)C3ON1O[C@@H]1C(=O)N(c3ccccc3)C(=O)[C@@H]12 (some centres undefined),GI50,T47D,> 100 µM (inactive)
CCN(CC)C(=O)N[C@@H](Cc1ccccc1)C(=O)NC,GI50,T47D,> 100 µM (inactive)
C/C(=N/S(=O)(=O)c1ccc(Cl)c(Cl)c1)OCC(C)(C)C,GI50,T47D,> 100 µM (inactive)
Cc1ccc(S(=O)(=O)n2c3c(c4ccccc42)CCN2C[C@H]([C@H](C)Br)CC[C@@H]32)cc1,GI50,T47D,> 100 µM (inactive)
CC(C)C1=CC23CCC4C(C)(C(=O)O)CCCC4(C)C2CC1C1C(=O)N(c2ccccc2N2C(=O)C4C5CC6C7(C)CCCC(C)(C(=O)O)C7CCC6(C=C5C(C)C)C4C2=O)C(=O)C13 (centres undefined),GI50,T47D,19.9 µM (inactive)
CN(C)Cc1[nH]c2ccccc2c1C(=O)c1ccccc1,GI50,DLD-1,> 100 µM (inactive)
same,GI50,DMS-273,> 100 µM (inactive)
same,GI50,KM-20L2,64.9 µM (inactive)
same,GI50,LXFL 529,> 100 µM (inactive)
CCCCCC(=O)OCC1(CO)C/C(=C/CC(C(C)C)C(C)C)C(=O)O1 (centres undefined),GI50,T47D,52.6 µM (inactive)
O=C1C=C(Nc2ccc(S(=O)(=O)Nc3nccs3)cc2)c2ccccc2C1=O,GI50,T47D,69.5 µM (inactive)
N#CSC1CCCCNC1=O (centres undefined),GI50,T47D,13 µM (inactive)
O=C1C(C(c2ccccc2)N2CCOCC2)=C(O)C(c2ccccc2)N1c1ccccc1 (centres undefined),GI50,T47D,> 10 µM (inactive)
COC(=O)c1c2c(cc3c1CC1(Cc4cc5c(c(C(C)=O)c4C1)CCC5)C3)CCC2 (centres undefined),GI50,DLD-1,> 100 µM (inactive)
same,GI50,DMS-114,61.5 µM (inactive)
same,GI50,DMS-273,29.9 µM (inactive)
same,GI50,HOP-18,> 100 µM (inactive)
same,GI50,LXFL 529,64.3 µM (inactive)
same,GI50,SNB-78,> 100 µM (inactive)
COc1c(-c2nc3ccc(N4CCN(C)CC4)nc3[nH]2)cc(OC)c2[nH]c(COC(C)=O)nc12,GI50,T47D,22.5 µM (inactive)
CCOC(=O)CCC(NC(=O)c1ccc(Nc2nc3ccccc3nc2-c2cccs2)cc1)C(=O)OCC (centres undefined),GI50,T47D,12 µM (inactive)
COC(=O)C1(O)C(c2ccccc2)NC2(C)CCCC21 (centres undefined),GI50,T47D,> 100 µM (inactive)
